Source: patent publication US9309242B2, “Substituted pyrido[2,3-b]pyrazines as FGFR kinase inhibitors” (priority 2011, dated 2016)
Counter-ions that a name gives are not always drawn. Like-named read-outs stand apart in the source and are kept apart here.

Columns and labels:
FGFR1 (h) = FGFR1 (h) (Homo sapiens, UniProt P11362); assay: FGFR1 (enzymatic assay), TR-FRET; format: biochemical; conditions: read-out: FGFR 1 pIC50 (converted)
FGFR2 (h) = FGFR2 (h) (Homo sapiens, UniProt P21802); assay: FGFR2 (enzymatic assay), TR-FRET; format: biochemical; conditions: enzymatic assay, read-out: FGFR 2 pIC50 (converted)
Sequence of FGFR2 (h) (P21802 22-821): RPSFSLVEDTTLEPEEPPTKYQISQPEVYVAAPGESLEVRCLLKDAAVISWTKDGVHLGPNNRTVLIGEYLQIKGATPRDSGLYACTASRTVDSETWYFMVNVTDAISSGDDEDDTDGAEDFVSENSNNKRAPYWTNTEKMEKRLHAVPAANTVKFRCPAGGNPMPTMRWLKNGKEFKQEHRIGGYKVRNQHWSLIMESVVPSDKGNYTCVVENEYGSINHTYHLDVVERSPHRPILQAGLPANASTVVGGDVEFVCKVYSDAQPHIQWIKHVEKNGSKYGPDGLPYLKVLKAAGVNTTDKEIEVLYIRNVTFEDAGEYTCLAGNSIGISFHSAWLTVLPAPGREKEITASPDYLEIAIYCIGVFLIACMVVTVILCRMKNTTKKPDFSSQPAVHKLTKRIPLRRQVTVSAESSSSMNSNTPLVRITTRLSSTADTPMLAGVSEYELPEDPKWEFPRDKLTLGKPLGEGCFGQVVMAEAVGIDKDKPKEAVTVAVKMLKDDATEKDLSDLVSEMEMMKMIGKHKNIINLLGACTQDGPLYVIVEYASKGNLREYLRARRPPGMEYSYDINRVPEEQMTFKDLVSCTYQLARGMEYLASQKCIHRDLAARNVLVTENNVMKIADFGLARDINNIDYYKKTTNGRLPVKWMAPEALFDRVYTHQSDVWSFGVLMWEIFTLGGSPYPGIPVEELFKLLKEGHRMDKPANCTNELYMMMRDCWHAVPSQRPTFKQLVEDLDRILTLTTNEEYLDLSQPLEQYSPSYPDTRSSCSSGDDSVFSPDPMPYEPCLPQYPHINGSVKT
Protocol: In a final reaction volume of 30 μL, FGFR2 (h) (150 ng/ml) was incubated with 50 mM HEPES pH 7.5, 6 mM MnCl2, 1 mM DTT, 0.1 mM Na3VO4, 0.01% Triton-X-100, 500 nM Btn-Flt3 and 0.4 μM ATP in the presence of compound (1% DMSO final).

FGFR3 (h) = FGFR3 (h) (Homo sapiens, UniProt P22607); assay: FGFR3 (enzymatic assay), TR-FRET; format: biochemical; conditions: read-out: FGFR 3 pIC50 (converted)
Sequence of FGFR3 (h) (P22607 23-806): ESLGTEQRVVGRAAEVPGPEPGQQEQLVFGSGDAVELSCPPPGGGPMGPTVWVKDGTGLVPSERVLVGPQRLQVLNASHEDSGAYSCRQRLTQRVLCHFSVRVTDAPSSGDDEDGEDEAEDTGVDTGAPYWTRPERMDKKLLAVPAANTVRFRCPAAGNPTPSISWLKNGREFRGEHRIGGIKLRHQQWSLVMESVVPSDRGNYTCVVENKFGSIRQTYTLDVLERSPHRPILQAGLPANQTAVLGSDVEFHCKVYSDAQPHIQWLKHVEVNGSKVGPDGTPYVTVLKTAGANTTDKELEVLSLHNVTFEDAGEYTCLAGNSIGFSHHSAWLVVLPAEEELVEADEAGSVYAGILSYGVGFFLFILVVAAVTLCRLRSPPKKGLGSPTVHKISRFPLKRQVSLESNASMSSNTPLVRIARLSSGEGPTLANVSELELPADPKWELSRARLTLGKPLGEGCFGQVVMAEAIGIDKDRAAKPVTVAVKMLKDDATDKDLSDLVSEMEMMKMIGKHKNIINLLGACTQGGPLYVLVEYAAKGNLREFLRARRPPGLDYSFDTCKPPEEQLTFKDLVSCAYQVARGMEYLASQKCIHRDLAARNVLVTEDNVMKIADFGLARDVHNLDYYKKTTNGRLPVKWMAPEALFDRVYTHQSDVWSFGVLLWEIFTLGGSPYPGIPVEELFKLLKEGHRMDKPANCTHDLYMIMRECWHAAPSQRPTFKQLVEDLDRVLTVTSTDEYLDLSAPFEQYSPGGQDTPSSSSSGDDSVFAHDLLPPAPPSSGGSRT
Text: Time-Resolved Fluorescence Resonance Energy Transfer (TR-FRET) signal (ex340 nm.

FGFR4 (h) = FGFR4 (h) (Homo sapiens, UniProt P22455); assay: FGFR4 (enzymatic assay), TR-FRET; format: biochemical; conditions: FGFR 4 pIC50, enzymatic assay
KDR (h) = KDR (h) (Homo sapiens, UniProt P35968); assay: KDR (VEGFR2) (enzymatic assay), TR-FRET; format: biochemical; conditions: read-out: VEGFR 2 (KDR) pIC50 (converted)
Protocol: KDR (VEGFR2) (Enzymatic Assay)
In a final reaction volume of 30 μL, KDR (h) (150 ng/ml) was incubated with 50 mM HEPES pH 7.5, 6 mM MnCl2, 1 mM DTT, 0.1 mM Na3VO4, 0.01% Triton-X-100, 500 nM Btn-Flt3 and 3 μM ATP in the presence of compound (1% DMSO final). After incubation for 120 minutes at room temperature the reaction was stopped with 2.27 nM EU-anti P-Tyr, 7 mM EDTA, 31.25 nM SA-XL-665 and 0.02% BSA which was present for 60 minutes at room temperature. Time-Resolved Fluorescence Resonance Energy Transfer (TR-FRET) signal (ex340 nm. Em 620 nm, em 655 nm) was measured afterwards and results are expressed in RFU (Relative Fluorescence Units).

[1] = molecular target: T1, Ba/F3-FGFR1-transfected cells (Homo sapiens, UniProt P11362); assay: Ba/F3-FGFR1 (minus IL3) cellular proliferation assay, Alamar Blue; format: cell-based
T1 construct: BAF3-FGFR1 (MIN IL3) pIC50; other: minus IL3
Protocol: (§1) Ba/F3-FGFR1 (Minus IL3 or Plus IL3) (Cellular Proliferation Assay)
(§2) In a 384 well plate, 100 nl of compound dilution in DMSO was sprayed before adding 50 μl cell culture medium (phenol red free RPMI-1640, 10% FBS, 2 mM L-Glutamine and 50 μg/ml Gentamycin) containing 20000 cells per well of Ba/F3-FGFR1-transfected cells. Cells were put in an incubator at 37° C. and 5% CO2. After 24 hours, 10 μl of Alamar Blue solution (0.5 mM K3Fe(CN)6, 0.5 mM K4Fe(CN)6, 0.15 mM Resazurin and 100 mM Phosphate Buffer) was added to the wells, incubated for 4 hours at 37° C. and 5% CO2 before RFU's (Relative Fluorescence Units) (ex. 540 nm., em. 590 nm.) were measured in a fluororescence plate reader.

[2] = system: Ba/F3-FGFR1-transfected cells; assay: Ba/F3-FGFR1 (plus IL3) cellular proliferation assay, counterscreen with 10 ng/ml murine IL3; format: cell-based; conditions: for IC50: read-out: BAF3-FGFR1 (PLUS IL3) pIC50 (converted); for BAF3-FGFR1 (PLUS IL3) pIC50: plus IL3 (10 ng/ml murine IL3, counterscreen)
Protocol: as §1, §2
(§3) As a counterscreen the same experiment was performed in the presence of 10 ng/ml murine IL3.

[3] = molecular target: T2, Ba/F3-FGFR3-transfected cells (Homo sapiens, UniProt P22607); assay: Ba/F3-FGFR3 (minus IL3) cellular proliferation assay, Alamar Blue; format: cell-based
T2 construct: BAF3-FGFR3 (MIN IL3) pIC50; other: minus IL3
Protocol: (§4) Ba/F3-FGFR3 (Minus IL3 or Plus IL3) (Cellular Proliferation Assay)
as §2, with “Ba/F3-FGFR3-transfected” for “Ba/F3-FGFR1-transfected”, “reader. […]” for “reader.”

[4] = system: Ba/F3-FGFR3-transfected cells; assay: Ba/F3-FGFR3 (plus IL3) cellular proliferation assay, counterscreen with 10 ng/ml murine IL3; format: cell-based; conditions: for IC50: read-out: BAF3-FGFR3 (PLUS IL3) pIC50 (converted); for BAF3-FGFR3 (PLUS IL3) pIC50: plus IL3 (10 ng/ml murine IL3, counterscreen)
Protocol: as §4
as §2, with “Ba/F3-FGFR3-transfected” for “Ba/F3-FGFR1-transfected”
as §3

[5] = molecular target: T3, Ba/F3-KDR-transfected cells (Homo sapiens, UniProt P35968); assay: Ba/F3-KDR (minus IL3) cellular proliferation assay, Alamar Blue; format: cell-based
T3 construct: BAF3-KDR (MIN IL3) pIC50; other: minus IL3
T3 sequence (P35968 whole entry, change not shown): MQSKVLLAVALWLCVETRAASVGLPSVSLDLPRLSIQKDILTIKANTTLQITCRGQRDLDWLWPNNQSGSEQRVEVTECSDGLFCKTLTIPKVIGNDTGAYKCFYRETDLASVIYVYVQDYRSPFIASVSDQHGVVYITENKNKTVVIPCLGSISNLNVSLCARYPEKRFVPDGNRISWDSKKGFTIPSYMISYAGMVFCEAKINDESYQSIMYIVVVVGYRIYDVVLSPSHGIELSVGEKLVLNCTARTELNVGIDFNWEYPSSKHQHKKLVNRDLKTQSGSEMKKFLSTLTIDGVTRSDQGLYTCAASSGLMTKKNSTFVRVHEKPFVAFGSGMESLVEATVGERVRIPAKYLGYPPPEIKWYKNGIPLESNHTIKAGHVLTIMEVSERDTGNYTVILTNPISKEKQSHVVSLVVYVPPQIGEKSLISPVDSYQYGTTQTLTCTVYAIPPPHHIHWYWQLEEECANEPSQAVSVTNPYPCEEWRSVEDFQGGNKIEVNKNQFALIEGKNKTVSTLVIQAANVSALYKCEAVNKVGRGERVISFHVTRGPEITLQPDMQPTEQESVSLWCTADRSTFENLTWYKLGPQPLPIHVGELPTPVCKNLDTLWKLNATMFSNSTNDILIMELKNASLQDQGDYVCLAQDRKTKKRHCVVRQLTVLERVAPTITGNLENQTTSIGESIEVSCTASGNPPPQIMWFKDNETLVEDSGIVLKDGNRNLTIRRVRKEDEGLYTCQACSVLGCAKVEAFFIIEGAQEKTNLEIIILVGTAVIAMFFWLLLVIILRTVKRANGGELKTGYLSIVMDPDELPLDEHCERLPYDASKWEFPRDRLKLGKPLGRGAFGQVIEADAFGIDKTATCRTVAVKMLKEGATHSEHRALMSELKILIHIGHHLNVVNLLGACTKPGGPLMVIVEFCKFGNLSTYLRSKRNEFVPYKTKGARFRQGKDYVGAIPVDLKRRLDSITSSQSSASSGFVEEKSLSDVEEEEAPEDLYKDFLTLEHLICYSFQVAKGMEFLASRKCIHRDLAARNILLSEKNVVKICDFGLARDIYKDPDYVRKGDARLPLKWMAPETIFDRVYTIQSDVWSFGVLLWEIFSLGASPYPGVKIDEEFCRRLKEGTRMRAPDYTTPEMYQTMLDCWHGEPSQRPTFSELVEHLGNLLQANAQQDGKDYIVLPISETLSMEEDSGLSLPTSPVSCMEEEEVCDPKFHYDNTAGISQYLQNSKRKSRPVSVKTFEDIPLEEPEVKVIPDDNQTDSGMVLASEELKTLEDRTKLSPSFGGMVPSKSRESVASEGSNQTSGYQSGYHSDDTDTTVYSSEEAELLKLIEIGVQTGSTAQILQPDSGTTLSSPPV
Protocol: (§5) Ba/F3-KDR (Minus IL3 or Plus IL3) (Cellular Proliferation Assay)
as §2, with “n1” for “nl”, “Ba/F3-KDR-transfected” for “Ba/F3-FGFR1-transfected”, “reader. […]” for “reader.”

[6] = system: Ba/F3-KDR-transfected cells; assay: Ba/F3-KDR (plus IL3) cellular proliferation assay, counterscreen with 10 ng/ml murine IL3; format: cell-based; conditions: for IC50: read-out: BAF3-KDR (PLUS IL3) pIC50 (converted); for BAF3-KDR (PLUS IL3) pIC50: plus IL3 (10 ng/ml murine IL3, counterscreen)
Protocol: as §5
as §2, with “n1” for “nl”, “Ba/F3-KDR-transfected” for “Ba/F3-FGFR1-transfected”
as §3

[7] = molecular target: Ba/F3-FGFR4-transfected cells (Homo sapiens, UniProt P22455); assay: Ba/F3-FGFR4 cellular proliferation assay, Alamar Blue; format: cell-based
Sequence of Ba/F3-FGFR4-transfected cells (P22455 whole entry, change not shown): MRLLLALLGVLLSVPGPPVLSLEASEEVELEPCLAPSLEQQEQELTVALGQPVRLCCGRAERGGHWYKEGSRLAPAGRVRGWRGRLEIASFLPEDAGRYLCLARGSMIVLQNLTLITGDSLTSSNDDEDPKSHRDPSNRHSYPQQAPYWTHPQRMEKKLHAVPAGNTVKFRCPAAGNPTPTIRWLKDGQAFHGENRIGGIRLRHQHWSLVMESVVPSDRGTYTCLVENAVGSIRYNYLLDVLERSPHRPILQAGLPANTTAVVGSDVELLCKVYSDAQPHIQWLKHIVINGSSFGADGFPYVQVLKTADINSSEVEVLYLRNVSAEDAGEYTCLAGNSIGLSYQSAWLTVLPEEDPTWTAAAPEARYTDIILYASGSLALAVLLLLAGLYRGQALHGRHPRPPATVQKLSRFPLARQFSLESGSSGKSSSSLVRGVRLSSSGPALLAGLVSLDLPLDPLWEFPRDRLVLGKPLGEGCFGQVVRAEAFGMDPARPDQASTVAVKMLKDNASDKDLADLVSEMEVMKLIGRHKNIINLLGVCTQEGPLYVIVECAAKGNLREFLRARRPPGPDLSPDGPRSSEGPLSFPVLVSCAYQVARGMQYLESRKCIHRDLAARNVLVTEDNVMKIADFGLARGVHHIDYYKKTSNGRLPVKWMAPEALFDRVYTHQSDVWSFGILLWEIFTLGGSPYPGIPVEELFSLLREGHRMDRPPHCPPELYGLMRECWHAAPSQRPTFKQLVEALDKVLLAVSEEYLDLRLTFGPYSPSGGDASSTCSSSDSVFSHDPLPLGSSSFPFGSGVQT
Protocol: Ba/F3-FGFR4 (Cellular Proliferation Assay)
as §2, with “n1” for “nl”, “Ba/F3-FGFR4-transfected” for “Ba/F3-FGFR1-transfected”

[8] = average values if tested multiple times

Sequence of FGFR1 (h) (P11362 22-822): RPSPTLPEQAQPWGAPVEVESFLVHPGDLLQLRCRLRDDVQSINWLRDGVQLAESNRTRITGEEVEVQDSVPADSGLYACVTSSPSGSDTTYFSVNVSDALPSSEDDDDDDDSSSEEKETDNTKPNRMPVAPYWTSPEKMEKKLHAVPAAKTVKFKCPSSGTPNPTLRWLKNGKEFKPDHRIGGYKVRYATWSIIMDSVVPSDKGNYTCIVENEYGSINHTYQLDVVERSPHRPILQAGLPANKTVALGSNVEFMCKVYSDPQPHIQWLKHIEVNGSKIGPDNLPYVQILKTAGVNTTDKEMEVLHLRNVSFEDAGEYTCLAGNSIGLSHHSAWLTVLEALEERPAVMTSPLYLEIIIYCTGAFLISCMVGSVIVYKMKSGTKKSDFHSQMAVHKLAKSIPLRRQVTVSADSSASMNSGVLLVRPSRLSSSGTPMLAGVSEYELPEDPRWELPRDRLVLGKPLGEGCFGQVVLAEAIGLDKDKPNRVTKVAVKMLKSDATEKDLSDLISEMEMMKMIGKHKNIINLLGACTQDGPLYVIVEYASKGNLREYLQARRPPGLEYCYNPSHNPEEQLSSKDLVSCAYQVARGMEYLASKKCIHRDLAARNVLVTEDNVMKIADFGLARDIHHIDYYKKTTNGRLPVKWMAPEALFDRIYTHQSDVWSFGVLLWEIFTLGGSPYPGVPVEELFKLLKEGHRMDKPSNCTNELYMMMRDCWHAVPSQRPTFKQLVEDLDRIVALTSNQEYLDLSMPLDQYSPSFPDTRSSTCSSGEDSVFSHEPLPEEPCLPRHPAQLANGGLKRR

SMILES | IC50 (FGFR1 (h); [8]) | IC50 (FGFR2 (h); [8]) | IC50 (FGFR3 (h); [8]) | IC50 (FGFR4 (h); [8]) | IC50 (KDR (h); [8]) | BAF3-FGFR1 (MIN IL3) pIC50 [1] | IC50 [2] | BAF3-FGFR3 (MIN IL3) pIC50 [3] | IC50 [4] | BAF3-KDR (MIN IL3) pIC50 [5] | IC50 [6] | BAF3-FGFR4 pIC50 [7] | IC50 (FGFR1 (h)) | IC50 (FGFR2 (h)) | IC50 (FGFR3 (h)) | IC50 (FGFR4 (h)) | IC50 (KDR (h)) | BAF3-FGFR1 (PLUS IL3) pIC50 [2] | BAF3-FGFR3 (PLUS IL3) pIC50 [4] | BAF3-KDR (PLUS IL3) pIC50 [6]
COc1cc(OC)c(F)c(N(Cc2nc3ccccc3[nH]2)c2ccc3ncc(-c4cnn(C)c4)nc3n2)c1 [Compound 80] | 1.35 nM | 2.63 nM | 1.82 nM | 1.55 nM | 10.2 nM | 7.76 | > 10000 nM | 8.08 | > 10000 nM | 5.79 | > 10000 nM | 7.36 | – | – | – | – | – | – | – | –
COc1cc(/N=c2\ccc3ncc(-c4cnn(C)c4)nc3n2CCCN2CCCC2=O)cc(OC)c1 [Compound 133] | – | – | – | – | – | 7.30 | > 10000 nM | ~7.58 | > 10000 nM | 6.39 | > 10000 nM | 6.73 | 1 nM | 1.23 nM | 0.724 nM | 1.58 nM | 5.89 nM | – | – | –
COc1cc(/N=c2\ccc3ncc(-c4cnn(C)c4)nc3n2CC2CCC(=O)N2)c(F)c(OC)c1 (stereo not drawn) [Compound 53] | 1.2 nM | 1.62 nM | 1.1 nM | 3.31 nM | 12.3 nM | 7.47 | – | 7.54 | – | 5.99 | – | 6.85 | – | – | – | – | – | <5 | <5 | <5
CNCCn1/c(=N/c2c(F)c(OC)cc(OC)c2F)ccc2ncc(-c3cn[nH]c3)nc21 [Compound 121] | – | – | – | – | – | 7.38 | > 10000 nM | 6.88 | > 10000 nM | 5.25 | > 10000 nM | 6.08 | 1.62 nM | 2.57 nM | 1 nM | 2.95 nM | 26.9 nM | – | – | –
COc1cc(OC)c(F)c(N(Cc2ncc[nH]2)c2ccc3ncc(-c4cnn(C)c4)nc3n2)c1 [23-phosphate salt] | 0.468 nM | 1.91 nM | 1.1 nM | 0.977 nM | 7.94 nM | 8.83 | – | ~8.64 | – | 7.03 | – | 8.15 | – | – | – | – | – | <5 | <5 | <5
COc1cc(OC)c(F)c(N(CC2CCC(=O)N2)c2ccc3ncc(-c4cnn(C)c4)nc3n2)c1F (stereo not drawn) [Compound 48] | 1.26 nM | 3.24 nM | 1.7 nM | 2.19 nM | 24.5 nM | 8.00 | – | ~7.94 | – | 6.03 | – | 6.89 | – | – | – | – | – | <5 | <5 | <5
COc1cc(OC)c(F)c(N(CC2CCC(=O)N2)c2ccc3ncc(-c4cnn(C)c4)nc3n2)c1 (stereo not drawn) [Compound 52] | 2.57 nM | 2.69 nM | 1.95 nM | 4.79 nM | 25.1 nM | 7.10 | – | 7.10 | – | 5.56 | – | 6.55 | – | – | – | – | – | <5 | <5 | <5
COc1cc(OC)cc(N(Cc2ncc[nH]2)c2ccc3ncc(-c4cnn(C)c4)nc3n2)c1 [24-sulphate salt] | 0.55 nM | 1.29 nM | ~0.912 nM | 0.759 nM | 13.2 nM | 8.29 | – | ~8.15 | – | 6.15 | – | 7.57 | – | – | – | – | – | <5 | <5 | <5
